For data set [1] the following is noted: cited from earlier work.
In another data set the test system is MDA-MB-468. Put plainly: Antiproliferative activity, SRB assay. In kind it is cell-based, human. To be noted: 72 hours of exposure; tested 5–625 μM. On the technique in general: The SRB assay estimates cell density from bound dye.

Results on one compound are retold here after article PMC12134470 (International Journal of Nanomedicine, 2025).

As to `CC(C)Cc1ccc([C@H](C)C(=O)O)cc1` [DXI, dexibuprofen], the Water solubility in data set [1] is 68.4 µg/mL. Besides, the “IC50 MDA-MB-468” value with MDA-MB-468 was “did not express any cytotoxic effect”.
